From US9018248B2, “Fatty acid derivatives of catechins and methods of their use” (Genesis Group Inc., priority 2010, dated 2015) come the findings set out here.

Marks after values point to notes of the source that are not given here.

Experiment [1] can be described thus: Bulk oil system, stripped corn oil, Rancimat. The conditions noted are these: PF=IPsample/IPcontrol; Rancimat 100° C., 1 μmol in 3 g oil. As for the experimental part:
One milliliter of EGCG and its derivatives dissolved in ethanol (1 μmol/ml) was transferred into a reaction vessel, followed by evaporation of the solvent to dryness under a stream of nitrogen. To each vessel (an empty vessel was used as control) 3 g of stripped corn oil (devoid of endogenous antioxidants) were added. The evaluation was carried out under accelerated oxidation in a Rancimat (Metrohm Model 743, Herisau, Switzerland) conditions at 100° C. with an air flow rate of 20 l/h. Lipid oxidation in the absence and presence of test compounds was monitored by changes in electrical conductivity, arising from the formation of volatile oxidation products. The induction periods (IP, time to reach a sudden increase in oxidation rate) were recorded. […] Antioxidant activity was interpreted as protection factor (PF), which was calculated as follow. PF=IPsample/IPcontrol where, IPsample and IPcontrol represent induction periods for the oil with and without test compounds, respectively. Discussion

The nature of experiment [2]: Oil/water emulsion (β-carotene/linoleate) bleaching. Particulars: test compounds 1 mM in ethanol, 50° C., 105 min. Here is the method: Ten milligrams of β-carotene were dissolved in 10 ml of chloroform. A 1.2 ml portion of this solution was transferred into a round-bottom flask containing 40 mg of linoleic acid and 400 mg of Tween 40. A blank without β-carotene was also prepared (40 mg of linoleic acid+400 mg of Tween 40). After removal of chloroform under a nitrogen stream, 100 ml of oxygenated distilled water were added to the flask and the mixture was stirred vigorously. Aliquots (4.5 ml) of the above emulsion were transferred into a series of tubes containing 0.5 ml of test compounds (1 mM in ethanol) or ethanol as control. A mixture of blank (without β-carotene) was prepared for each sample. The tubes were vortexed and the zero time absorbance was read immediately at 470 nm. The tubes are kept in a water bath at 50° C. with gentle shaking, and measurement of absorbance was continued over a 105-min period at intervals of 15 min. Blank-corrected absorbance was obtained and plotted against time for kinetic curve of β-carotene bleaching. Antioxidant activity (AA) of test compounds in protecting β-carotene/linoleic acid oxidation was calculated using the following equation. AA %=[1−(A0−At)/(A0^o−At^o)]×100 where, A0 and At are corrected absorbance values for test samples measured at zero time and after incubation, respectively; while A0^o and At^o are corrected absorbance values for control at zero time and after incubation, respectively.

Experiment [3] can be described thus: Metal chelation capacity (ferrozine). The conditions noted are these: test compounds 1 mM ethanolic solution, FeCl2, ferrozine. As for the experimental part: (§1) An ORAC (Oxygen Radical Absorbance Capacity) assay was carried out using a Fluostar Optima plate reader (BMG Labtech, Durham, N.C.) equipped with an incubator and two injector pumps. A modified method for lipophilic antioxidants was followed, in which randomly methylated cyclodextrin (RMCD) was used as water solubility enhancer, as described by Huang et al, J. Agric. Food Chem., 2002, 50, 1815-1821. Trolox standards (6.25-50 μM) and samples (0.25 μM) were dissolved in acetone/water (1:1, v/v) containing 7% RMCD. Fluorescein and […] [2,2′-azobis(2-aminopropane)dihydrochloride] were used as the probe and radical generator, respectively. Twenty microliters of trolox standard or test compound solutions (7% RMCD used as a control) were added into each well of a 96-well black microplate, followed by addition of fluorescein. The plate was incubated at 37° C. for 15 min and then AAPH in buffer was injected into the wells. The conditions used were as follows: 0.3 s position delay, 8 s orbital shaking before each cycle with 4 mm width, 210 s cycle time, and 25 cycles. Fluorescence was measured at an excitation wavelength of 485 nm and emission of 520 nm. A standard curve was plotted and ORAC values for test compounds were obtained as mol of trolox equivalents (TE) per mol of test compound. (3b) Reducing Power The reducing power of EGCG and its derivatives (compounds 1a-1c) was determined according to Oyaizu (1986). One milliliter of test compounds (1 mM in 95% ethanol) was mixed with 2.5 ml of phosphate buffer solution (PBS, 0.2 M, pH 6.6) and 2.5 ml of a 1% solution of potassium ferricyanide, K3Fe(CN)6. The mixture was incubated at 50° C. for 20 min. […] The content was mixed well and the absorbance was recorded at 700 nm. Higher absorbance of the reaction mixture indicates greater reducing power. […] (3c) Metal Chelation The metal chelation capacity was measured following a procedure by Decker E. A. et al., J. Agric. […] The absorbance was measured afterwards at 562 nm. A blank without ferrozine was run for each compound, since the antioxidant-Fe^2+ complex gives a colour that might interfere with the absorbance reading. Metal chelation capacity was calculated using the following equation: % chelation=[1−(Abs.sample−Abs.blank)/Abs.control]×100 where, control was devoid of test compounds, while blank contained no ferrozine. (3d) DPPH Antioxidant activity of the lipophilic EGCG derivatives was ALSO evaluated as DPPH (1,1-diphenyl-2-picrylhydrazyl) radical scavenging capacity using EGCG as the reference. DPPH scavenging capacity of test compounds was determined by EPR (electron paramagnetic resonance) according to Madhujith and Shahidi (16) with slight modifications. […] The spectrum was recorded after 1 min. […]

A short description of experiment [4]: ORAC (Oxygen Radical Absorbance Capacity) assay for lipophilic antioxidants. The conditions noted are these: samples 0.25 μM, 7% RMCD, fluorescein probe. Here is the method:
as §1

In the case of `CCC=CCC=CCC=CCC=CCC=CCCCC(=O)Oc1cc(C(=O)OC2Cc3c(O)cc(O)cc3OC2c2cc(OC(=O)CCCC=CCC=CCC=CCC=CCC=CCC)c(O)c(OC(=O)CCCC=CCC=CCC=CCC=CCC=CCC)c2)cc(OC(=O)CCCC=CCC=CCC=CCC=CCC=CCC)c1O` (stereo not shown) [Compound 1b], the “Protection Factor (PF)” value in experiment [1] is listed as 0.82. For the same compound, the “Inhibition of β-carotene bleaching” value in experiment [2] is listed as 28.0 ± 0.17^a %. This compound also came in with a Metal chelation in experiment [3] of 35.42%. The same compound yielded an ORAC in experiment [4] of 81.52 mol trolox eq./mol.

Consider `CCC=CCC=CCC=CCC=CCC=CCC=CCCC(=O)Oc1cc(C(=O)OC2Cc3c(O)cc(O)cc3OC2c2cc(OC(=O)CCC=CCC=CCC=CCC=CCC=CCC=CCC)c(O)c(OC(=O)CCC=CCC=CCC=CCC=CCC=CCC=CCC)c2)cc(OC(=O)CCC=CCC=CCC=CCC=CCC=CCC=CCC)c1O` (stereo not shown) [Compound 1c], for which, in experiment [1], the “Protection Factor (PF)” value is given as 0.77. Also, in experiment [2], the “Inhibition of β-carotene bleaching” value is 32.1 ± 4.48^a %. Further, the Metal chelation in experiment [3] is given as 28.13%. Further, in experiment [4], the ORAC came out at 84.70 mol trolox eq./mol.

On to `CCCCCCCCCCCCCCCCCC(=O)Oc1cc(C(=O)OC2Cc3c(O)cc(O)cc3OC2c2cc(OC(=O)CCCCCCCCCCCCCCCCC)c(O)c(OC(=O)CCCCCCCCCCCCCCCCC)c2)cc(OC(=O)CCCCCCCCCCCCCCCCC)c1O` (stereo not shown) [Compound 1a, EGCG stearate], for which the “Protection Factor (PF)” value in experiment [1] is 2.38. Further, the “Inhibition of β-carotene bleaching” value in experiment [2] is 16.8 ± 4.19^b %. Further, in experiment [3], the Metal chelation is 8.33%. In addition, the ORAC in experiment [4] is listed as 51.56 mol trolox eq./mol.

Take `O=C(O[C@@H]1Cc2c(O)cc(O)cc2O[C@@H]1c1cc(O)c(O)c(O)c1)c1cc(O)c(O)c(O)c1` [EGCG, Epigallocatechin gallate, reference compound]: the “Protection Factor (PF)” value in experiment [1] came out at 1.40. Also, the “Inhibition of β-carotene bleaching” value in experiment [2] was 7.90 ± 0.64^c %. The Metal chelation in experiment [3] amounted to 10.42%. Moreover, in experiment [4], the ORAC is on record as 14.97 mol trolox eq./mol.
